{"source": "patent US20240092727A1", "about": "“CRYSTALLINE 4-((L-VALYL)OXY)BUTANOIC ACID” (XWPHARMA LTD., priority 2022, published 2024)", "key": {"[1]": {"assay": "Sealed storage stability, other studies, 36 months", "type": "physicochemical", "settings": "25±2° C., for 36 months; stable = absorbs less than 2 wt % water and impurity content of less than 2 wt %", "description": "(§1) “Sealed storage stability” refers to the stability of a compound that is enclosed within two sealed polyethylene bags with a desiccant material placed between the two polyethylene bags and the two sealed polyethylene bags are enclosed within a sealed one-layer aluminum bag.\nStability is defined as the sample of crystalline 4-((L-valyl)oxy)butanoic acid absorbs less than 2 wt % water and an impurity content of less than 2 wt % for a period of time under the indicated sealed storage conditions."}, "[2]": {"assay": "Sealed storage stability study (ICH Q1A (R2)), four storage conditions, 3- and 6-month timepoints", "type": "physicochemical", "design": "key to Crystalline Form: C = Conforms; N/A = Not Applicable", "settings": "for Crystalline Form: XRPD; for Crystalline Form / Assay / Total Impurities / Water Content: sealed storage", "description": "as §1\nCrystalline 4-((L-valyl)oxy)butanoic acid was packaged in double low-density polyethylene (LDPE) zipper bags and sealed. The packaged samples were then placed within an aluminum foil outer bag (polyethylene, polyethylene terephthalate three-layer composite) and sealed. The fully packaged samples were placed in stability chambers for the duration of the sealed storage stability study.\nSealed storage stability studies were carried out under four sets of conditions external to the packaged crystalline 4-((L-valyl)oxy)butanoic acid: • 1. Accelerated conditions ([…], 75±5% RH). • 2. Intermediate storage condition ([…], 65±5% RH). • 3. Long-term storage condition (25±2° C., […]). • 4. 2-8° C. conditions.\nThe sealed storage stability of crystalline 4-((L-valyl)oxy)butanoic acid (1) was tested according to the International Council for Harmonization of Technical Requirements for Pharmaceuticals for Human Use (ICH) document Q1A (R2) “Stability Testing of New Drug Substances and Products.” Accordingly, samples were pulled at 3- and 6-month timepoints. The assay percentage of the crystalline 4-((L-valyl)oxy)butanoic acid was determined by electrochemical titration using acetic acid as the solvent and perchloric acid as the titrant. Water content was tested by Karl Fischer titration (Karl Fisher Titrator: Mettler V30). Impurities were measured by HPLC (HPLC Instrument: Waters Arc HPLC system with CAD; Column: Waters Atlantis T3, 4.6×150 mm, 3 μm). The samples were analyzed by XRPD analysis (XRPD Instrument: Bruker D8 advance). The sealed storage stability results of crystalline 4-((L-valyl)oxy)butanoic acid stored under the four storage conditions are summarized in Table 2."}, "[3]": {"settings": "up to 6 months under all sealed storage conditions"}}}
{"smiles": "CC(C)[C@H](N)C(=O)OCCCC(=O)O", "note": "[4-((L-valyl)oxy)butanoic acid]", "values": [{"measurement": "Sealed storage stability", "setting": "[1]", "result": "sealed storage stable"}, {"measurement": "Crystalline Form", "setting": "[2]; 2-8° C., 6 M", "result": "C"}, {"measurement": "Crystalline Form", "setting": "[2]; 2-8° C., D 0", "result": "C"}, {"measurement": "Crystalline Form", "setting": "[2]; 25 ± 2° C., 60 ± 5% RH, 6 M", "result": "C"}, {"measurement": "Crystalline Form", "setting": "[2]; 25 ± 2° C., 60 ± 5% RH, D 0", "result": "C"}, {"measurement": "Crystalline Form", "setting": "[2]; 30 ± 2° C., 65 ± 5% RH, 3 M", "result": "C"}, {"measurement": "Crystalline Form", "setting": "[2]; 30 ± 2° C., 65 ± 5% RH, 6 M", "result": "C"}, {"measurement": "Crystalline Form", "setting": "[2]; 30 ± 2° C., 65 ± 5% RH, D 0", "result": "C"}, {"measurement": "Crystalline Form", "setting": "[2]; 40 ± 2° C., 75 ± 5% RH, 6 M", "result": "C"}, {"measurement": "Crystalline Form", "setting": "[2]; 40 ± 2° C., 75 ± 5% RH, D 0", "result": "C"}, {"measurement": "Assay", "setting": "[2]; 2-8° C., 3 M", "result": 98.8, "unit": "wt %"}, {"measurement": "Total Impurities", "setting": "[2]; 2-8° C., 3 M", "result": 0.4, "unit": "wt %"}, {"measurement": "Water Content", "setting": "[2]; 2-8° C., 3 M", "result": 0.2, "unit": "wt %"}, {"measurement": "Assay", "setting": "[2]; 2-8° C., 6 M", "result": 99.8, "unit": "wt %"}, {"measurement": "Total Impurities", "setting": "[2]; 2-8° C., 6 M", "result": 0.2, "unit": "wt %"}, {"measurement": "Water Content", "setting": "[2]; 2-8° C., 6 M", "result": 0.3, "unit": "wt %"}, {"measurement": "Assay", "setting": "[2]; 2-8° C., D 0", "result": 99.4, "unit": "wt %"}, {"measurement": "Total Impurities", "setting": "[2]; 2-8° C., D 0", "result": 0.3, "unit": "wt %"}, {"measurement": "Water Content", "setting": "[2]; 2-8° C., D 0", "result": 0.1, "unit": "wt %"}, {"measurement": "Assay", "setting": "[2]; 25 ± 2° C., 60 ± 5% RH, 3 M", "result": 98.8, "unit": "wt %"}, {"measurement": "Total Impurities", "setting": "[2]; 25 ± 2° C., 60 ± 5% RH, 3 M", "result": 0.5, "unit": "wt %"}, {"measurement": "Water Content", "setting": "[2]; 25 ± 2° C., 60 ± 5% RH, 3 M", "result": 0.2, "unit": "wt %"}, {"measurement": "Assay", "setting": "[2]; 25 ± 2° C., 60 ± 5% RH, 6 M", "result": 99.3, "unit": "wt %"}, {"measurement": "Total Impurities", "setting": "[2]; 25 ± 2° C., 60 ± 5% RH, 6 M", "result": 0.4, "unit": "wt %"}, {"measurement": "Water Content", "setting": "[2]; 25 ± 2° C., 60 ± 5% RH, 6 M", "result": 0.3, "unit": "wt %"}, {"measurement": "Assay", "setting": "[2]; 25 ± 2° C., 60 ± 5% RH, D 0", "result": 99.4, "unit": "wt %"}, {"measurement": "Total Impurities", "setting": "[2]; 25 ± 2° C., 60 ± 5% RH, D 0", "result": 0.3, "unit": "wt %"}, {"measurement": "Water Content", "setting": "[2]; 25 ± 2° C., 60 ± 5% RH, D 0", "result": 0.1, "unit": "wt %"}, {"measurement": "Assay", "setting": "[2]; 30 ± 2° C., 65 ± 5% RH, 3 M", "result": 99.9, "unit": "wt %"}, {"measurement": "Total Impurities", "setting": "[2]; 30 ± 2° C., 65 ± 5% RH, 3 M", "result": 0.4, "unit": "wt %"}, {"measurement": "Water Content", "setting": "[2]; 30 ± 2° C., 65 ± 5% RH, 3 M", "result": 0.4, "unit": "wt %"}, {"measurement": "Assay", "setting": "[2]; 30 ± 2° C., 65 ± 5% RH, 6 M", "result": 99.3, "unit": "wt %"}, {"measurement": "Total Impurities", "setting": "[2]; 30 ± 2° C., 65 ± 5% RH, 6 M", "result": 0.4, "unit": "wt %"}, {"measurement": "Water Content", "setting": "[2]; 30 ± 2° C., 65 ± 5% RH, 6 M", "result": 0.1, "unit": "wt %"}, {"measurement": "Assay", "setting": "[2]; 30 ± 2° C., 65 ± 5% RH, D 0", "result": 99.4, "unit": "wt %"}, {"measurement": "Total Impurities", "setting": "[2]; 30 ± 2° C., 65 ± 5% RH, D 0", "result": 0.3, "unit": "wt %"}, {"measurement": "Water Content", "setting": "[2]; 30 ± 2° C., 65 ± 5% RH, D 0", "result": 0.1, "unit": "wt %"}, {"measurement": "Assay", "setting": "[2]; 40 ± 2° C., 75 ± 5% RH, 3 M", "result": 98.8, "unit": "wt %"}, {"measurement": "Total Impurities", "setting": "[2]; 40 ± 2° C., 75 ± 5% RH, 3 M", "result": 0.6, "unit": "wt %"}, {"measurement": "Water Content", "setting": "[2]; 40 ± 2° C., 75 ± 5% RH, 3 M", "result": 0.1, "unit": "wt %"}, {"measurement": "Assay", "setting": "[2]; 40 ± 2° C., 75 ± 5% RH, 6 M", "result": 99.3, "unit": "wt %"}, {"measurement": "Total Impurities", "setting": "[2]; 40 ± 2° C., 75 ± 5% RH, 6 M", "result": 0.7, "unit": "wt %"}, {"measurement": "Water Content", "setting": "[2]; 40 ± 2° C., 75 ± 5% RH, 6 M", "result": 0.3, "unit": "wt %"}, {"measurement": "Assay", "setting": "[2]; 40 ± 2° C., 75 ± 5% RH, D 0", "result": 99.4, "unit": "wt %"}, {"measurement": "Total Impurities", "setting": "[2]; 40 ± 2° C., 75 ± 5% RH, D 0", "result": 0.3, "unit": "wt %"}, {"measurement": "Water Content", "setting": "[2]; 40 ± 2° C., 75 ± 5% RH, D 0", "result": 0.1, "unit": "wt %"}, {"measurement": "Chemical stability of the crystalline sample", "setting": "[2]; [3]", "result": "chemically stable"}, {"measurement": "Sealed storage stability", "setting": "[2]; [3]", "result": "stable"}]}
